Entries after “also recorded” stand apart in the source; their conditions may differ. Where no end group is shown, it is not given here.

The values below come from patent US12161694B2, “Methods and compositions for regulating innate lymphoid cell inflammatory responses” (The Broad Institute, Inc., priority 2017, dated 2024).

This test has as its system ILCs sorted from the lungs of naive mice. Nature of the test: ILC in vitro culture: Il5/Il13 mRNA (qPCR) and IL-5/IL-13 in supernatant (LegendPlex). The format is cell-based, mouse. As for the experimental part:
Fluorescence-activated cell sorting of innate lymphoid cells. After dissociation, single cell suspensions were incubated with CD90.2 MicroBeads (Miltenyi Biotec) on ice and enriched for CD90.2^+ cells by magnetic separation using LS columns according to the manufacturer's protocol. CD90.2^+ lung cells were then stained on ice with antibodies for sorting. ILCs were defined as 7AAD^− CD45^+ CD90.2^+ CD127^+ Lineage (CD11b, CD11c, CD19, NK1.1, CD3ε, CD4, CD8a, TCRβ, TCRγδ)^− cells and sorted on a BD FACS Aria (BD Biosciences).
ILC in vitro culture. For in vitro experiments 5,000 ILCs/well were cultured in a 96 well round bottom plate with 20 ng/ml IL-7 (R&D Systems), 200 ng/ml IL-33 (BioLegend) or 200 ng/ml IL-25 (R&D Systems) with or without 1 μg/ml Neuromedin U (US Biological). In some cases purified CD90.2^+ lung cells were first labeled with CellTrace Violet (Thermo Fisher Scientific), then sorted as described above, and cultured for 3 days under the indicated conditions.
(§1) Quantitative real-time PCR. RNA was isolated using RNeasy Plus Mini Kit (Qiagen) and reverse transcribed to cDNA with iScript cDNA Synthesis Kit (Bio-Rad). Gene expression was analyzed by quantitative real-time PCR on a ViiA7 System (Thermo Fisher Scientific) using TaqMan Fast Advanced Master Mix (Thermo Fisher Scientific) with the following primer/probe sets: IL-5 (Mm00439646_m1), IL-13 (Mm00434204_m1), IL-17RB (Mm00444709_m1), Nmur1 (Mm04207994 m1), Nmur2 (Mm00600704_m1), and β-Actin (Applied Biosystems). Expression values were calculated relative to β-Actin detected in the same sample by duplex qPCR.
Cytokine quantification. Cytokine concentrations in BAL fluid, lung and supernatant of in vitro ILC cultures were analyzed by the LegendPlex Mouse Th Cytokine Panel (13-plex) (BioLegend) according to the manufacturer's instructions and analyzed on a FACS Calibur (BD Biosciences).
Fluorescence-activated cell sorting of innate lymphoid cells. After dissociation, single cell suspensions were incubated with CD90.2 MicroBeads (Miltenyi Biotec) on ice and enriched for CD90.2^+ cells by magnetic separation using LS columns according to the manufacturer's protocol. CD90.2^− lung cells were then stained on ice with antibodies for sorting. ILCs were defined as 7AAD^− CD45^+ CD90.2^+ CD127^+ Lineage (CD11b, CD 11c, CD19, NK1.1, CD3ε, CD4, CD8a, TCRβ, TCRγδ)^− cells and sorted on a BD FACS Aria (BD Biosciences).
ILC in vitro culture. For in vitro experiments 5,000 ILCs/well were cultured in a 96 well round bottom plate with 20 ng/ml IL-7 (R&D Systems), 200 ng/ml IL-25 (R&D Systems) or 20 ng/ml, 2 ng/ml or 0.2 ng/ml IL-33 (BioLegend) with or without 1 μg/ml Neuromedin U (US Biological). In some cases purified CD90.2^+ lung cells were first labeled with CellTrace Violet (Thermo Fisher Scientific), then sorted as described above, and cultured for 3 days under the indicated conditions.
as §1, with “Il5” for “IL-5”, “Il13” for “IL-13”, “Il17rb” for “IL-17RB”, “(Mm04207994_m1),” for “(Mm04207994 m1),”, “(Mm00600704_m1), Nmu (Mm00479868_m1)” for “(Mm00600704_m1),”, “Actb” for “β-Actin”
In general terms: In qPCR the cycle at which signal appears reflects the starting amount.

In the case of “Neuromedin U (FRVDEEFQSPFASQSRGYFLFRPRN-NH2; listed as Homo sapiens) [NMU, neuropeptide ligand of Nmur1 (US Biological)]”, for the setting “Example 1: ILCs in vitro, IL-33 200 ng/ml with NMU 1 μg/ml vs IL-33 alone”, the “Il5 and Il13 levels, NMU in combination with IL-33” value is “did not significantly alter; also recorded: neither amplifies”. Further, the “IL-33-induced IL-5 and IL-13 secretion with NMU” value (Example 2: ILCs in vitro, IL-33 20, 2 or 0.2 ng/ml with NMU 1 μg/ml, LegendPlex) was “enhanced”. Where the note is “IL-7 20 ng/ml, IL-25 200 ng/ml, IL-33, NMU 1 μg/ml, mRNA by qPCR (protein by LegendPlex)”, the “Il5 and Il13 expression in ILCs cultured in vitro” value was “modest upregulation; also recorded: far lower than those observed in response to IL-25 and IL-33; also recorded: only mildly upregulated”. In addition, under “ILCs in vitro, IL-25 in conjunction with NMU vs IL-25 alone, LegendPlex”, the “increase of IL-5 and IL-13 protein levels in response to IL-25” value is listed as “at least 8 fold”. Where the note is “ILCs in vitro, IL-25 in conjunction with NMU vs IL-25 alone, qPCR”, the “increase of Il5 and Il13 mRNA levels in response to IL-25” value was “at least 3.6 fold”.
